For orientation: cell viability means the share of living cells, or the viability signal relative to a control.

Nine molecules from patent publication US9732367B2, “Cell lines” (MEDIMMUNE LIMITED, priority 2012, dated 2017) can be followed below.

Type in all cases: cell-based
For test [1], the system named is CHO cells stably expressing pylRS and tRNApyl and an IgG directed against her2/neu containing an amber codon. The experiment in a line: Growth and viability of pylRS/tRNApyl cell line treated with lys azide and dnnAA. From the text: To examine whether the dnnAAs of the invention could function to improve the viability of cells containing pylRS and tRNApyl we monitored the growth and viability of a cell line, stably expressing pylRS and tRNApyl. For this assay CHO cells stably expressing pylRS and tRNApyl and an IgG directed against her2/neu containing an amber codon in the heavy chain, shown to effectively incorporate nnAA into the expressed IgG thus producing an antibody containing a nnAA, were used for this experiment. Despite a high expression level of pylRS/tRNApyl pair, this cell line has very robust cell growth characteristics when grown in medium lacking nnAA. The presence of a highly expressed target containing an amber codon likely has a protective effect on the cells by supplying them with high levels of amber codons that absorb the amber suppression activity and protects the cells from the effects of background amber suppression at essential genes. However, upon addition of the nnAA (lys-azide) to the growth medium, and activation of the amber suppression machinery, a decrease in cell growth rate is observed. […] To determine whether a dnnAA can rescue this effect, cells cultured in serum free medium were grown to a cell density of 0.5×10^6 cells/mL and subsequently treated with 0.5 mM lys azide alone or in combination with 2 Mm dnnAA. Cell viability and cell numbers were monitored daily over seven days. Cells treated with lys azide alone reached a cell density just below 1×10^6 cells/mL on day 3 after nnAA addition and remained at this density for the remainder of the assay (seven days) (FIG. 15A) The lack of growth was not likely due to loss of viability as the culture retained high viability throughout the experiment (˜70% viable cells) (FIG. 15B) Cultures treated with 2 mM Compound of formula VIIB.4, or 2 mM Formula VIIB.1 in combination with 0.5 mM lys-azide supported continued growth of the culture that reached over 1.5×10^6 cells/mL and retained a cell viability of 90%.

The next test has as its target T1, pylRS/tRNA pair (Methanosarcina mazei, UniProt Q8PWY1).
T1 construct: expressed in transfected cells; host or cells: HEK293 clone 3H7
The experiment in a line: GFP assay: translational testing of pyrrolysine analogs as nnAAs. Particulars: nnAA 2 mM, 2-3 days. From the text: An in vitro cell based assay was developed to assess the compatibility of the pylRS/tRNA pair and the pyrrolysine analogs of the present invention (nnAAs) by and the efficiency of nnAAs integration into a target protein. For this, HEK293 cells stably expressing pylRS (3H7) were transiently transfected with plasmids for the expression of tRNApyl and a reporter construct encoding GFPY40 (containing amber codon in place of tyrosine at amino acid residue number 40 (where 1 is the initiator methionine)) using standard transfection protocols. Transfected cells were incubated with nnAAs at 2 mM for 2-3 days GFP production was analyzed qualitatively by visual inspection under the microscope. The GFP fluorescence was quantified by flow cytometry using an Accuri flow cytometer and the geometric mean of the fluorescent cells determined.
This cell based assay was used to determine whether the different nnAAs were suitable substrates for the pylRS and allowed its translation into a target protein. Cells expressing the PylRS/tRNApyl pair and containing a vector encoding the GFPY40 reporter gene were incubated in the presence of the nnAAs. nnAAs that are readily utilized by the PylRS/tRNApyl pair support the translation of the nnAA into the amber site of GFP and allow read-through of the gene producing full length GFP (fluorescent protein). The fluorescence intensity of the cells depends on the efficiency of nnAA incorporation. Thus, nnAAs that are poorly utilized produce weakly fluorescent or non-fluorescing cells. […] Furthermore, the relative expression levels in each sample was compared to those generated by substrates known to be efficiently utilized by pylRS.

Another test deals with T2, pylRS (Methanosarcina mazei, UniProt Q8PWY1).
T2 construct: expressed in transfected cells
T2 sequence (Q8PWY1 whole entry): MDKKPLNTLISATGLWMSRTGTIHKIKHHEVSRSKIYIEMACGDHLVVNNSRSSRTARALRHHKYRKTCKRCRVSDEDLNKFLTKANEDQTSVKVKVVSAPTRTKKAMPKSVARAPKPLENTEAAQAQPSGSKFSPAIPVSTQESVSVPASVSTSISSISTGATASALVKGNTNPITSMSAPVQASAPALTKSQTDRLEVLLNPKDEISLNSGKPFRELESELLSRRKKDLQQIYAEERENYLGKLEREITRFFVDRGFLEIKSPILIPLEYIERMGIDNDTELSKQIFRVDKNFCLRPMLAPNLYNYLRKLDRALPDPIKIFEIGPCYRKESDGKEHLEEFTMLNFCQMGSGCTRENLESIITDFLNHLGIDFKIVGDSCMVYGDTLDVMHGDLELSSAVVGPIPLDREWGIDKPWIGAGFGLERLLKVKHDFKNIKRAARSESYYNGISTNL
Put plainly: In vitro GFPY40 functional assay: dnnAA competition with lys azide in HEK293 cells stably expressing pylRS. Particulars: for reduction of GFP expression relative to samples lacking dnnAA (geometric mean fluorescence intensity): lys azide with 0.5 mM, 1 mM and 2 mM dnnAA. From the text: Effective dnnAAs were identified by their ability to compete with a high affinity substrate for pylRS (lys-azide) in an in vitro assay, for their ability to reduce background amber suppression levels observed with a reporter protein, and for their ability to improve the viability and function of cells previously selected for high pylRS/tRNA activity.
To identify analogues that could effectively compete for pylRS binding with lys-azide, dnnAAs were first tested for function in an in vitro functional assay based on the ability of cells expressing WT pylRS and tRNApyl to introduce a nnAA at a target site in the reporter protein GFPY40. This reporter contains an amber codon in its open reading frame that, in the absence of amber suppression, generates a truncated protein that is not fluorescent. In the event of amber suppression, a full length GFP protein is generated that is detectable by fluorescence detection methods. In this assay, HEK293 cells stably expressing pylRS, were transiently transfected with a tRNA expression construct and the GFPY40 reporter cassette. Cells were then incubated with 0.5 mM lys azide in the presence or absence of different concentrations of dnnAA ranging from 0.5 mM to 2 mM. GFP fluorescence levels were then quantified by flow cytometry. For this assay the proportion of fluorescent cells in each condition was determined and plotted. As the dnnAAs are expected to compete with the nnAA (lys-azide) for pylRS/tRNA binding, an effective dnnAA should reduce or prevent the expression of full length GFP (as described above dnnAAs can be delivered by the tRNA to the amber site, but cannot propagate protein synthesis).
A similar in vitro assay was used to gauge the effectiveness of the dnnAAs of Formula VIIB listed in Table 1 where a description of the amino acids tested and a summary of the results are shown For this assay the geometric mean fluorescence intensity of each sample was determined by flow cytometry and plotted. For each dnnAA tested control cells transfected with wild type GFP were measured as a positive control. In addition cells transfected with the reporter GFPY40 and exposed to 0.5 mM lys azide or 2 mM lys azide were used to determine maximal GFP expression levels in the absence of an inhibitor. In each case robust GFP expression levels were observed. To test whether any of the dnnAA could reduce the efficacy of GFP expression, cells were incubated in the presence of 0.5 mM, 1 mM and 2 mM […]. […] Thus, dnnAAs of the present invention can compete with the lys-azide nnAA for binding to the pylRS and interfere with the physiological mechanism of nnAA introduction. Cells transfected with the pylRS/tRNA pair and the GFPY40 reporter construct but not exposed to either lys-azide or a dnnAA were used to determine levels of background amber suppression and used as a negative control. In each case low GFP expression levels were observed.

The subject of test [2] is background amber suppression. Put plainly: Background amber suppression (GFPY40 reporter, pylRS/tRNApyl, dnnAA without nnAA). To be noted: for reduction in background amber suppression levels: dnnAA at 0.5 mM, 1 mM and 2 mM; for % Reduction at 2 mM Decoy: reduction in GFP expression relative to control not exposed to dnnAA, 3 days. The protocol:
The competitive assay for dnnAA inhibition in the presence of a high affinity substrate identified dnnAAs that compete for binding with to the pylRS and thus are specific inhibitors of the pylRS/tRNA. However, the decoy nnAA is intended to reduce the levels of background amber suppression in the absence of nnAA. To determine if background amber suppression levels could be reduced, we incubated cells containing the GFPY40 reporter construct and the pylRS/tRNApyl pair in medium containing one of the dnnAAs. To do this, HEK293 cells stably expressing pylRS were transiently transfected with a tRNA expression construct and the GFPY40 reporter cassette. After 3 days of incubation, cells were assayed for expression of GFP by flow cytometry and geometric mean fluorescence intensity of the samples determined. We have previously observed that cells containing the full complement of the pylRS/tRNA amber suppression system show detectable expression of the GFP reporter construct that is above what is observed in cells lacking the amber suppression system. […] To identify dnnAAs capable of reducing background amber suppression levels the transfected cells were incubated with each of the dnnAAs at 0.5 mM, 1 mM and 2 mM and GFP levels measured by flow cytometry.
The decrease in background amber suppression dependent GFP expression was dose dependent and improved as the dnnAA concentration increased. […] This feature is an attractive characteristic for platform development as it enables the repression of background amber suppression but the system can be activated upon addition of a strong pylRS substrate such as lys-azide. […] Their efficacy was quantified by the reduction in GFP expression relative to a control sample (not exposed to dnnAA) and the data are summarized in Table 1.

The mark [3] stands for this setting: Formula V analogs, geometric mean.
[4] abbreviates: 2 mM dnnAA with 0.5 mM lys-azide.
Setting [5] is: 2 mM dnnAA with 0.5 mM lys-azide, seven days.

T1 sequence (Q8PWY1 whole entry): as above

In the case of `[N-]=[N+]=NCCOC(=O)NCCCC[C@H](N)C(=O)O` [Formula V.1, (2S)-2-amino-6-{[(2-azidoethoxy)carbonyl]amino}hexanoic acid], in test [1] (0.5 mM lys azide alone), the viable cells is roughly 70%. The cell density result in test [1] (0.5 mM lys azide alone, day 3 to day 7) is “below 1 ×10^6 cells/mL”. Besides, the “Positive GFP” value at pylRS/tRNA pair (Formula V analogs) is “Yes”. Besides, the MFI at pylRS/tRNA pair (setting [3]) is given as 931,289; on pylRS/tRNA pair (Formula V analogs, geometric mean, listed as V.1), 931289.

Turning to `C#CCOC(=O)NCCCC[C@H](N)C(=O)O` [Formula V.2, (2S)-2-amino-6-{[(prop-2-yn-1-yloxy)carbonyl]amino}hexanoic acid], the “Positive GFP” value at pylRS/tRNA pair (Formula V analogs) is “Yes”. Moreover, the MFI on pylRS/tRNA pair (setting [3]) was 1,676,250; on pylRS/tRNA pair (Formula V analogs, geometric mean, listed as V.2) it was 1676250.

For the molecule `[N-]=[N+]=NCCNC(=O)OCCCC[C@H](N)C(=O)O` [Formula VI.1, (2S)-2-amino-6-{[(2-azidoethyl)carbamoyl]oxy}hexanoic acid], on pylRS/tRNA pair (Formula VI analogs), the MFI amounted to 904206; the “Positive GFP Assay” value is “incorporated in the GFP reporter gene and yield green cells and Yes”.

As to `C=CCNC(=O)OCCCC[C@H](N)C(=O)O` [Formula VI.3, (2S)-2-amino-6-{[(prop-2-en-1-yl)carbamoyl]oxy}hexanoic acid], the “Positive GFP Assay” value at pylRS/tRNA pair (Formula VI analogs) is “incorporated in the GFP reporter gene and yield green cells and Yes”.

On to `C=CCOC(=O)NCCCCCC(=O)O` [Formula VIIB.1, 6-{[(prop-2-en-1-yloxy)carbonyl]amino}hexanoic acid], for which, in test [1] (setting [4]), the “prevention of cytostatic effects of amber suppression activation” value is “prevent the cytostatic effects”. Further, the cell viability in test [1] (setting [5]) came to 90%. The “reduction of GFP expression relative to samples lacking dnnAA (geometric mean fluorescence intensity)” value on pylRS is recorded as “greatest reduction of GFP expression”. Also, in test [2], the “reduction in background amber suppression levels” value is “reduction in the background amber suppression levels” and the “% Reduction at 2 mM Decoy” value is reported as 62.5%.

As for `O=C(O)CCCCCNC(=O)OCCCl` [Formula VIIB.3, 6-{[(2-chloroethoxy)carbonyl]amino}hexanoic acid], in test [1] (setting [5]), the cell density is given as < 0.5 ×10^6 cells/mL and the cell viability is recorded as 30-40%. Besides, at pylRS, the “reduction of GFP expression relative to samples lacking dnnAA (geometric mean fluorescence intensity)” value is listed as “greatest reduction of GFP expression”. Also, in test [2], the “reduction in background amber suppression levels” value is recorded as “reduction in the background amber suppression levels” and the “% Reduction at 2 mM Decoy” value worked out at 49.7%.

With `CC(C)(C)OC(=O)NCCCCCC(=O)O` [Formula VIIB.4, 6-{[(tert-butoxy)carbonyl]amino}hexanoic acid], in test [1] (setting [4]), the “prevention of cytostatic effects of amber suppression activation” value was “prevent the cytostatic effects”. Also, in test [1] (setting [5]), the cell viability stood at 90%. Further, the “number of fluorescent cells (GFPY40)” value at pylRS (0.5 mM lys azide with dnnAA 0.5 mM to 2 mM) is on record as “concomitant reduction in the number of fluorescent cells”. At pylRS (dnnAA alone, no lys azide), the “GFP expression with dnnAA alone (amber codon readthrough)” value was “did not induce GFP expression”. The “effect on GFPwt expression (non-specific effects)” value on pylRS (reporter lacking an amber codon) was “no effect on protein expression”. Moreover, the “% Reduction at 2 mM Decoy” value in test [2] came to 46.3%.

Consider `C#CCOC(=O)NCCCCCC(=O)O` [Formula VIIB.5, 6-{[(prop-2-yn-1-yloxy)carbonyl]amino}hexanoic acid], for which the “reduction of GFP expression relative to samples lacking dnnAA (geometric mean fluorescence intensity)” value on pylRS is on record as “relative reduction in GFP expression was much lower”. Moreover, the “reduction in background amber suppression levels” value in test [2] is reported as “reduction in the background amber suppression levels”. Also, the “% Reduction at 2 mM Decoy” value in test [2] is 35%; in test [2] (listed as VIIB.5) it was 35.0%.

Consider `[N-]=[N+]=NCCOC(=O)NCCCCCC(=O)O` [Formula VIIB.6, 6-{[(2-azidoethoxy)carbonyl]amino}hexanoic acid], for which, on pylRS, the “reduction of GFP expression relative to samples lacking dnnAA (geometric mean fluorescence intensity)” value is on record as “greatest reduction of GFP expression”. Further, the “reduction in background amber suppression levels” value in test [2] is listed as “reduction in the background amber suppression levels”. The “% Reduction at 2 mM Decoy” value in test [2] was 32%; in test [2] (listed as VIIB.6), 32.7%.
